Experimental data published in patent US20060079680A1, “Pyrazoloazepine compounds as pharmaceutical agents” (Eli Lilly and Company Patent Division, priority 2002, published 2006).

melting point: 157 to 159 °C
Compound: c1ccc(-c2nn3c(c2-c2ccnc4cc(OCCN5CCOCC5)ccc24)CCCCC3)nc1 [Example 4, 3-[7-(2-Morpholin-4-yl-ethoxy)-quinolin-4-yl]-2-pyridin-2-yl-5,6,7,8-tetrahydro-4H-pyrazolo[1,5-a]azepine]
